# From the supplement of paper PMC7695840
# Values joined by “and” are separate entries in the source; they are usually repeats but may differ in a detail not shown here. Equal entries are not always repeated. Structures can show the parent of a compound that is named as a salt.
# Experiments:
# [1] = tested on: Staphylococcus aureus MW2 delta-mecA (mecA-); assay: IC50 (growth, competition assay); conditions: cefoxitin: subinhibitory
# Method in brief: (§1)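 Pre-induced, 1:1-mixed fluorescent S. aureus MW2 mecA+ and ΔmecA strains were grown 20 h at 37 °C, 90% humidity, unshaken, in LB with a daily-set subinhibitory cefoxitin dose, in 1536-well plates. Compounds were given on five- or nine-point 2-fold gradients, in two dye-swapped replicates. DsRed (540/590) and GFP (485/520) were scaled per plate between single-strain control medians, with No Treatment then set to 0.5. Per-strain IC50 was the dose halving the No Treatment signal, or the maximal signal.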
# [2] = tested on: Staphylococcus aureus MW2 (mecA+); assay: IC50 (growth, competition assay); conditions: cefoxitin: subinhibitory
# Method in brief: as §1
SMILES,IC50 ([1]; fluorescent label: DsRed),IC50 ([1]; fluorescent label: GFP),IC50 ([2]; fluorescent label: DsRed),IC50 ([2]; fluorescent label: GFP)
COc1cc(/C=C/C(=O)CC(=O)/C=C/c2ccc(O)c(OC)c2)ccc1O [CURCUMIN],< 9.85 µM,< 9.85 µM,26.8 µM,50.1 µM
CC1CC(OC(=O)C(O)c2ccccc2)CC(C)(C)C1 (stereo not given) [CYCLOSPASMOL],15.1 µM,13.8 µM,45.1 µM,83.4 µM
N[C@@H](Cc1cc(I)c(Oc2ccc(O)c(I)c2)c(I)c1)C(=O)O [CYTOMEL],14 µM,< 9.85 µM,60.3 µM,49.1 µM
O=C(/C=C/c1ccc(O)c(O)c1)OCCc1ccccc1 [Caffeic acid phenethyl ester],22.9 µM,19.4 µM,57.7 µM,88.4 µM
CNc1ccc2oc(C[C@H]3O[C@@]4(CC[C@H]3C)O[C@H]([C@H](C)C(=O)c3ccc[nH]3)[C@H](C)C[C@H]4C)nc2c1C(=O)O [Calcimycin],< 9.85 µM,< 9.85 µM,< 9.85 µM,< 9.85 µM
Clc1ccc(C(c2ccc(Cl)cc2)[n+]2ccn(CC(OCc3ccc(Cl)cc3Cl)c3ccc(Cl)cc3Cl)c2)cc1 (stereo not given) [Calmidazolium chloride],< 9.85 µM,< 9.85 µM,< 9.85 µM,< 9.85 µM
Oc1cc2c(cc1O)CN(C(=S)NCCc1ccc(Cl)cc1)CCC2 [Capsazepine],34.5 µM,36.1 µM,59.4 µM,111 µM
CC1(C)S[C@@H]2[C@H](NC(=O)C(C(=O)O)c3ccccc3)C(=O)N2[C@H]1C(=O)O (stereo not given in full) [Carbenicillin disodium],< 9.85 µM,< 9.85 µM,20.8 µM,42.1 µM
CCCCCCNC(=O)n1cc(F)c(=O)[nH]c1=O [Carmofur],< 9.85 µM,< 9.85 µM,< 9.85 µM,< 9.85 µM
CC[C@H](C)C[C@H](C)CCCCCCCCC(=O)N[C@H]1C[C@@H](O)[C@@H](NCCN)NC(=O)[C@@H]2[C@@H](O)CCN2C(=O)[C@H]([C@H](O)CCN)NC(=O)[C@H]([C@H](O)[C@@H](O)c2ccc(O)cc2)NC(=O)[C@@H]2C[C@@H](O)CN2C(=O)[C@H]([C@@H](C)O)NC1=O [Caspofungin acetate],14.4 µM,< 9.85 µM,36.7 µM,42.1 µM
N[C@@H](C(=O)N[C@@H]1C(=O)N2C(C(=O)O)=C(Cl)CS[C@H]12)c1ccccc1 [Cefaclor (Ceclor)],< 0.498 µM,< 0.498 µM,7.22 µM,7.26 µM
N[C@@H](C(=O)N[C@@H]1C(=O)N2C(C(=O)O)=C(Cl)CS[C@H]12)c1ccccc1 [Cefaclor],< 9.85 µM,< 9.85 µM,< 9.85 µM,< 9.85 µM
Cc1nnc(SCC2=C(C(=O)O)N3C(=O)[C@@H](NC(=O)Cn4cnnn4)[C@H]3SC2)s1 [Cefazolin sodium],< 9.85 µM,< 9.85 µM,< 9.85 µM,< 9.85 µM
C=CC1=C(C(=O)O)N2C(=O)[C@@H](NC(=O)/C(=N\O)c3csc(N)n3)[C@H]2SC1 [Cefdinir (Omnicef)],< 0.498 µM,< 0.498 µM,4.17 µM,3.6 µM
CO/N=C(\C(=O)N[C@@H]1C(=O)N2C(C(=O)OCOC(=O)C(C)(C)C)=C(/C=C\c3scnc3C)CS[C@H]12)c1csc(N)n1 [Cefditoren pivoxil],< 0.498 µM,< 0.498 µM,16.7 µM,13.3 µM
CCN1CCN(C(=O)N[C@@H](C(=O)N[C@@H]2C(=O)N3C(C(=O)O)=C(CSc4nnnn4C)CS[C@H]23)c2ccc(O)cc2)C(=O)C1=O [Cefoperazone (Cefobid)],< 0.498 µM,< 0.498 µM,4.66 µM,6.86 µM
CO/N=C(\C(=O)N[C@@H]1C(=O)N2C(C(=O)O)=C(COC(C)=O)CS[C@H]12)c1csc(N)n1 [Cefotaxime sodium],< 9.85 µM,< 9.85 µM,< 9.85 µM,< 9.85 µM
CO/N=C(\C(=O)N[C@@H]1C(=O)N2C(C(=O)O)=C(CSc3nc(=O)c(O)nn3C)CS[C@H]12)c1csc(N)n1 [Ceftriaxone sodium],< 9.85 µM,< 9.85 µM,14.9 µM,14.9 µM
CC1=C(O)C(=O)C=C2C1=CC=C1[C@@]2(C)CC[C@@]2(C)[C@@H]3C[C@](C)(C(=O)O)CC[C@]3(C)CC[C@]12C [Celastrol],< 0.498 µM,< 0.498 µM,1.67 µM,1.73 µM
Cc1ccc(-c2cc(C(F)(F)F)nn2-c2ccc(S(N)(=O)=O)cc2)cc1 [Celecoxib],8.58 µM and 20.1 µM,9.91 µM and 18.2 µM,114 µM and 112 µM,112 µM and 95.4 µM
CC(=O)OCC1=C(C(=O)O)N2C(=O)[C@@H](NC(=O)Cc3cccs3)[C@H]2SC1 [Cephalothin sodium],< 9.85 µM,< 9.85 µM,< 9.85 µM,< 9.85 µM
Cc1cc(Nc2ncc(Cl)c(Nc3ccccc3S(=O)(=O)C(C)C)n2)c(OC(C)C)cc1C1CCNCC1 [Ceritinib (LDK378)],< 9.85 µM,< 9.85 µM,29 µM,27.7 µM
COc1ccc2c(c[n+](C)c3c4cc5c(cc4ccc23)OCO5)c1OC [Chelerythrine chloride],15 µM,< 9.85 µM,36.7 µM,49.2 µM
C[C@H](CCC(=O)O)[C@H]1CC[C@H]2[C@@H]3[C@H](O)C[C@@H]4C[C@H](O)CC[C@]4(C)[C@H]3CC[C@]12C [Chenodeoxycholic acid],14.8 µM,7.91 µM,54 µM,91.4 µM
Cc1cc(C2CCCCC2)n(O)c(=O)c1 [Ciclopirox (Penlac)],29.7 µM,29.5 µM,19 µM,30.1 µM
Cc1cc(C2CCCCC2)n(O)c(=O)c1 [Ciclopirox ethanolamine],28.3 µM and 61.2 µM,29.8 µM and 57.2 µM,24.5 µM and 49.9 µM,29.7 µM and 60.7 µM
CC(C)(Oc1ccc(C2CC2(Cl)Cl)cc1)C(=O)O (stereo not given) [Ciprofibrate],21.6 µM,30.6 µM,93.1 µM,107 µM
O=C(O)c1cn(C2CC2)c2cc(N3CCNCC3)c(F)cc2c1=O [Ciprofloxacin (Cipro)],0.863 µM,1.17 µM,3.52 µM,3.52 µM

SMILES,IC50 ([1]; fluorescent label: DsRed),IC50 ([1]; fluorescent label: GFP),IC50 ([2]; fluorescent label: DsRed),IC50 ([2]; fluorescent label: GFP)
CCCCCCCCCCCCCCCC(=O)O[C@@H]1[C@@H](O)[C@@H](O)[C@@H]([C@H](NC(=O)[C@@H]2C[C@@H](CCC)CN2C)[C@H](C)Cl)O[C@@H]1SC [Clindamycin palmitate HCl],< 9.85 µM,< 9.85 µM,< 9.85 µM,< 9.85 µM
CCN(CC)CCOc1ccc(C(=C(Cl)c2ccccc2)c2ccccc2)cc1 [Clomifene citrate (Serophene)],< 9.85 µM,< 9.85 µM,15 µM,14.9 µM
Clc1ccccc1C(c1ccccc1)(c1ccccc1)n1ccnc1 [Clotrimazole],< 9.85 µM,< 9.85 µM,16.1 µM,15.8 µM
Cc1onc(-c2ccccc2Cl)c1C(=O)N[C@@H]1C(=O)N2[C@@H]1SC(C)(C)[C@@H]2C(=O)O [Cloxacillin sodium],< 9.85 µM,< 9.85 µM,< 9.85 µM,< 9.85 µM
CC(C)c1nc(CN(C)C(=O)N[C@@H](CCN2CCOCC2)C(=O)N[C@H](CC[C@H](Cc2ccccc2)NC(=O)OCc2cncs2)Cc2ccccc2)cs1 [Cobicistat (GS-9350)],29.4 µM,27.6 µM,109 µM,107 µM
C[C@H]1COC2=C1C(=O)C(=O)c1c2ccc2c1CCCC2(C)C [Cryptotanshinone],< 9.85 µM,< 9.85 µM,12.1 µM,19.2 µM
CN(C)c1ccc(C(=C2C=CC(=[N+](C)C)C=C2)c2ccc(N(C)C)cc2)cc1 [Crystal violet],< 0.498 µM,< 0.498 µM,0.691 µM,0.758 µM
COc1cc(/C=C/C(=O)CC(=O)/C=C/c2ccc(O)c(OC)c2)ccc1O [Curcumin],4.13 µM,3.73 µM,34.7 µM,53.8 µM
Cc1cc(NC2CCCCC2)nc(-n2nc(C)cc2C)n1 [CyPPA],18.6 µM,16.9 µM,40 µM,107 µM
CN(C)[C@@H]1C(O)=C(C(N)=O)C(=O)[C@@]2(O)C(O)=C3C(=O)c4c(O)ccc(Cl)c4[C@@H](O)[C@H]3C[C@@H]12 [DECLOMYCIN],< 9.85 µM,< 9.85 µM,< 9.85 µM,< 9.85 µM
Cc1cc(C(C)(C)CC(C)(C)C)ccc1OCCOCC[N+](C)(C)Cc1ccccc1 [DELAVAN],< 9.85 µM,< 9.85 µM,< 9.85 µM,< 9.85 µM
CCc1oc2ccccc2c1C(=O)c1cc(Br)c(O)c(Br)c1 [DESURIC],< 9.85 µM,< 9.85 µM,< 9.85 µM,< 9.85 µM
COc1ccc(Cc2cnc(N)nc2N)cc1OC [DIAVERIDINE],27.4 µM,26.7 µM,57.3 µM,29.9 µM
Oc1ccc(Cl)cc1Cc1cc(Cl)ccc1O [DICHLOROPHEN],< 9.85 µM,< 9.85 µM,< 9.85 µM,< 9.85 µM
O=c1oc2ccccc2c(O)c1Cc1c(O)c2ccccc2oc1=O [DICUMOL],14 µM,27 µM,11.6 µM,18.2 µM
CN1CCN(c2cc3c(cc2F)c(=O)c(C(=O)O)cn3-c2ccc(F)cc2)CC1 [DICURAL],< 9.85 µM,< 9.85 µM,< 9.85 µM,< 9.85 µM
COc1cc(C)c(C(=O)Oc2cc(C)c(C(=O)O)c(O)c2C)c(OC)c1C [DIFFRACTAIC ACID],12.8 µM,15.7 µM,31 µM,27.5 µM
Cc1c(O)c(O)cc2c1CC=C1[C@@]2(C)CC[C@@]2(C)[C@@H]3C[C@](C)(C(=O)O)CC[C@]3(C)CC[C@]12C [DIHYDROCELASTROL],< 9.85 µM,< 9.85 µM,< 9.85 µM,< 9.85 µM
CC(=O)Oc1cc2c(c(C)c1OC(C)=O)CC=C1[C@@]2(C)CC[C@@]2(C)C3C[C@](C)(C(=O)O)CC[C@]3(C)CC[C@]12C (stereo not given in full) [DIHYDROCELASTRYL DIACETATE],< 9.85 µM,< 9.85 µM,< 9.85 µM,< 9.85 µM
CC[C@H]1OC(=O)[C@H](C)[C@@H](O[C@H]2C[C@@](C)(OC)[C@@H](O)[C@H](C)O2)[C@H](C)[C@@H](O[C@@H]2O[C@H](C)C[C@H](N(C)C)[C@H]2O)[C@](C)(O)C[C@@H](C)[C@@H]2N[C@@H](COCCOC)O[C@H]([C@H]2C)[C@]1(C)O [DYNABAC],< 9.85 µM,< 9.85 µM,21.4 µM,21.3 µM
Cc1onc(-c2c(Cl)cccc2Cl)c1C(=O)N[C@@H]1C(=O)N2[C@@H]1SC(C)(C)[C@@H]2C(=O)O [DYNAPEN],< 9.85 µM,< 9.85 µM,< 9.85 µM,< 9.85 µM
CN1C[C@@H]2C[C@H]1CN2c1cc2c(cc1F)c(=O)c(C(=O)O)cn2C1CC1 [Danofloxacin Mesylate],< 9.85 µM,< 9.85 µM,< 9.85 µM,< 9.85 µM
O=C(O)c1ccc(-n2nc(-c3ccccc3O)nc2-c2ccccc2O)cc1 [Deferasirox (Exjade)],22.6 µM,24.3 µM,91.6 µM,57.1 µM
CN(C)[C@@H]1C(=O)C(C(N)=O)=C(O)[C@@]2(O)C(=O)C3=C(O)c4c(O)ccc(Cl)c4[C@@H](O)[C@H]3C[C@@H]12 [Demeclocycline hydrochloride],< 9.85 µM,< 9.85 µM,< 9.85 µM,< 9.85 µM
Cc1cc(N)c2ccccc2[n+]1CCCCCCCCCC[n+]1c(C)cc(N)c2ccccc21 [Dequalinium Chloride],< 9.85 µM,< 9.85 µM,< 9.85 µM,11.3 µM
Cc1cc(N)c2ccccc2[n+]1CCCCCCCCCC[n+]1c(C)cc(N)c2ccccc21 [Dequalinium chloride hydrate],< 9.85 µM,< 9.85 µM,< 9.85 µM,< 9.85 µM
Cc1onc(-c2c(Cl)cccc2Cl)c1C(=O)N[C@@H]1C(=O)N2[C@@H]1SC(C)(C)[C@@H]2C(=O)O [Dicloxacillin Sodium],< 9.85 µM,< 9.85 µM,< 9.85 µM,< 9.85 µM
